# Patent publication US7371414B2, “Therapeutic and diagnostic methods dependent on CYP2A enzymes” (Nicogen, Inc., priority 1997, dated 2008)
# Where two headings read alike, the source gives them in different places.
# What was measured:
# CYP2A6 [1] = molecular target: T1, CYP2A6 (Homo sapiens, UniProt P11509); conditions: nicotine 4.0 mg p.o.; for increase in plasma nicotine: p<0.01
# T1 sequence (P11509 1-494): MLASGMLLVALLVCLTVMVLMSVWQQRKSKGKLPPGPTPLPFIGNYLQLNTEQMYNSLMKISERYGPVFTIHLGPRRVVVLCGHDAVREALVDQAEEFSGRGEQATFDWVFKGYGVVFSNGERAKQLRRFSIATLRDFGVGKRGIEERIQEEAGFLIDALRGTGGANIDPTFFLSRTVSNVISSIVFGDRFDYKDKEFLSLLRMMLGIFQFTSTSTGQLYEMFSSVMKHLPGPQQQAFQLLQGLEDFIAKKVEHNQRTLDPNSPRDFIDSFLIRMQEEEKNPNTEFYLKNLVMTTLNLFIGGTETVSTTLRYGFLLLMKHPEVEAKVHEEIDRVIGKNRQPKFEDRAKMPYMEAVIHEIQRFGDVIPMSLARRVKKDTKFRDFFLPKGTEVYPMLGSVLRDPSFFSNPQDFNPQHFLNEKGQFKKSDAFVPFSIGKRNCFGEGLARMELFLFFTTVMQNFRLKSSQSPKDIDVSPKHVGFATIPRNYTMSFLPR
# CYP2A6 [2] = molecular target: T1, CYP2A6; assay: In vitro inhibition of nicotine metabolism in expressed CYP2A6
# CYP2A6 [3] = molecular target: T1, CYP2A6; assay: Inhibition of nicotine metabolism to cotinine in test livers; format: biochemical; set-up: from tissue; host or cells: human smokers in vivo (hepatic CYP2A6)
# CYP2A6 [4] = molecular target: T1, CYP2A6; assay: Effect of esculetin on nicotine metabolism by human liver microsomes; format: biochemical; set-up: from tissue; host or cells: human smokers in vivo (hepatic CYP2A6); conditions: FIG. 19
# Experimental: Nicotine metabolism was monitored in vitro. Inhibitor assessment was carried out by comparing the assay including 50 μl tris buffer with the extracts prepared in Example 11 (50 μl, diluted in tris buffer). Human liver microsomes or CYP2A6 microsomes were used. The concentration of inhibitor in Hypericum was calculated on the basis of an apparent molecular weight of the inhibitor of 504 and a concentration of 0.3% active material in the plant material when diluting to yield concentrations of […] μM.
# • Substrate 80 μM (50 μl tris buffer) • NADPH1 mM (50 μl tris buffer) • Microsomes 80 μg (30 μl tris buffer) • Cytosol (rat) 20 μl (tris buffer) • Tris buffer 50 μl (pH7.4) • Final volume […] Incubation Procedure:
# The incubation was carried out at 37° C. for 30 min. An internal standard (50 μl, caffeine, 0.05 mg/ml) was added to the incubation mixture, followed by DCM (1 ml). The mixture was shaken for 10 min and centrifuged for 5 min at 3,000 g. The top layer was aspirated. HC1 (0.01 N, 100 μl) was added, followed by shaking for 1 min, then centrifuge for 5 min at 3,000 g. 30 μl of the HCl layer was injected for HPLC. […]
# CYP2A6 [5] = molecular target: T1, CYP2A6; assay: Effect of methoxsalen on nicotine metabolism in tobacco dependent smokers (Example 6); format: in vivo; set-up: from tissue; host or cells: human smokers in vivo (hepatic CYP2A6); conditions: methoxsalen 10 mg t.i.d. p.o.
# Experimental: Subjects were recruited only if they smoked at least 15 cigarette per day, and were required to smoke the same number of cigarettes each day, on all four study days. During assessment, blood was taken to be analyzed for plasma nicotine and cotinine levels, as well as for CYP2A6 genotyping. Breath carbon monoxide was also measured.
# During each study day a smoking log was completed. This log asked subjects to document the number of cigarette smoked from 8:00 a.m. to […]., and 10:00 p.m. to 8:00 a.m. Study days 1 and 2 could be separated, but days 2, 3 and 4 were required to be consecutive.
# On both study days 1 (placebo) and 4 (treatment), a 24 h urine collection was initiated on waking. At 2:00 p.m. blood was drawn for nicotine and cotinine analysis and breath carbon monoxide was measured. […] Urine samples can be analyzed for 24 h NNAL, NNAL glucuronide, creatinine and cotinine.
# CYP2A6 [6] = assay: In vivo phenotype assay: plasma kinetics of nicotine and coumarin after oral administration by CYP2A6 genotype; conditions: both, human, 4 mg, plasma nicotine, 90 min after nicotine 4.0 mg oral
# Experimental: The plasma kinetics of nicotine and coumarin were compared after oral administration in 10 smokers and 9 non-smokers (12 males, 7 females) of known CYP2A6 genotype. The dose of nicotine was 4.0 mg (expressed as base) and the dose of coumarin was 50 mg. The plasma concentration of nicotine, cotinine, coumarin and 7-OH-coumarin were measured as described above.
# [7] = cited from earlier work
structure (smiles),measurement,setting,value
N[C@@H]1C[C@H]1c1ccccc1 (racemic) [tranylcypromine],desire to smoke,"CYP2A6 [1]; inhibitor dose 2.5 mg (T2.5), p=0.17",significant (p<0.05) decrease
same,increase in plasma nicotine,CYP2A6 [1]; inhibitor dose 2.5 mg,~100%
same,increase in plasma nicotine,CYP2A6 [1]; inhibitor dose 10 mg,~100%
same,plasma nicotine compared to placebo (in words),"CYP2A6 [1]; methoxsalen 3 mg, 10 mg or 30 mg, tranylcypromine 2.5 mg or 10 mg",significantly increased
same,inhibition of CYP2A6 (in words),CYP2A6 [2],potent inhibitors of CYP2A6
O=c1ccc2ccccc2o1 [coumarin],inhibition of nicotine metabolism to cotinine,CYP2A6 [3],84%±11%
O=c1ccc2cc(O)c(O)cc2o1 [esculetin],inhibition of nicotine metabolism by CYP2A6 (in words),CYP2A6 [4],potent inhibitor of CYP2A6
COc1c2occc2cc2ccc(=O)oc12 [methoxsalen],desire to smoke,CYP2A6 [1]; inhibitor dose 10 mg (M10),significant (p<0.05) decrease
same,desire to smoke,CYP2A6 [1]; inhibitor dose 30 mg (M30),significant (p<0.05) decrease
same,decrease in breath CO,CYP2A6 [5]; day 4 vs placebo day,11%
same,increase in plasma nicotine,CYP2A6 [5]; day 4 vs placebo day,17%
same,breath CO,CYP2A6 [5]; treatment day 4,20.5 ppm
same,plasma nicotine,CYP2A6 [5]; treatment day 4,27 ng/mL
CN1CCCC1c1cccnc1 (stereo not drawn) [nicotine],concentration at 90 min,CYP2A6 [6]; genotype *1/*1,24 ± 15 nM
same,concentration at 90 min,CYP2A6 [6]; genotype *1/*2 or *1/*3,29 ± 12 nM
same,concentration at 90 min,CYP2A6 [6]; genotype *2/*2,52 ± 3 nM
same,share of nicotine metabolized to the inactive metabolite cotinine,[7]; in humans,60-85%
same,share of nicotine metabolized by CYP2A6 in vivo,[7]; in vivo,approximately 75%
same,share of oral nicotine metabolized to cotinine by the liver,"[7]; oral, first pass",60-85%
same,nicotine bioavailability,[7]; oral,20-35%
same,share of oral nicotine that reaches the systemic circulation,[7]; oral,15-40%
